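Cells were grown in 96-well plates and exposed to each compound for 48 hours at five concentrations; endpoints were interpolated linearly between bracketing concentrations, or set to the highest concentration if not reached. Abbreviation: GI50, concentration required for 50% inhibition of growth. TGI marks complete inhibition of growth.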
What was measured:
Assay in all cases: NCI-60 cell line screen, 48 h
RPMI-8226 leukemia = test system: RPMI-8226 leukemia
SR leukemia = test system: SR leukemia
OVCAR-4 ovarian = test system: OVCAR-4 ovarian
SK-MEL-2 melanoma = test system: SK-MEL-2 melanoma
OVCAR-5 ovarian = test system: OVCAR-5 ovarian
NCI-H23 lung = test system: NCI-H23 lung
K-562 leukemia = test system: K-562 leukemia
TK-10 renal = test system: TK-10 renal
NCI-H226 lung = test system: NCI-H226 lung
HCC-2998 colon = test system: HCC-2998 colon
M14 melanoma = test system: M14 melanoma
MOLT-4 leukemia = test system: MOLT-4 leukemia
SW-620 colon = test system: SW-620 colon
COLO 205 colon = test system: COLO 205 colon
NCI/ADR-RES ovarian = test system: NCI/ADR-RES ovarian
SNB-19 CNS = test system: SNB-19 CNS
IGROV1 ovarian = test system: IGROV1 ovarian
U251 CNS = test system: U251 CNS
NCI-H460 lung = test system: NCI-H460 lung
SK-MEL-5 melanoma = test system: SK-MEL-5 melanoma
786-0 renal = test system: 786-0 renal
HCT-116 colon = test system: HCT-116 colon
HT29 colon = test system: HT29 colon
CCRF-CEM leukemia = test system: CCRF-CEM leukemia
DU-145 prostate = test system: DU-145 prostate
ACHN renal = test system: ACHN renal
UACC-257 melanoma = test system: UACC-257 melanoma
MCF7 breast = test system: MCF7 breast
PC-3 prostate = test system: PC-3 prostate
KM12 colon = test system: KM12 colon
UO-31 renal = test system: UO-31 renal
SN12C renal = test system: SN12C renal
NCI-H522 lung = test system: NCI-H522 lung
EKVX NSCLC = test system: EKVX NSCLC
SK-OV-3 ovarian = test system: SK-OV-3 ovarian
OVCAR-3 ovarian = test system: OVCAR-3 ovarian
SF-295 CNS = test system: SF-295 CNS
LOX IMVI melanoma = test system: LOX IMVI melanoma
MDA-MB-231 breast = test system: MDA-MB-231 breast
HS 578T breast = test system: HS 578T breast
HOP-62 NSCLC = test system: HOP-62 NSCLC
SK-MEL-28 melanoma = test system: SK-MEL-28 melanoma
OVCAR-8 ovarian = test system: OVCAR-8 ovarian
A549 NSCLC = test system: A549 NSCLC
SNB-75 CNS = test system: SNB-75 CNS
UACC-62 melanoma = test system: UACC-62 melanoma
SF-539 CNS = test system: SF-539 CNS
T-47D breast = test system: T-47D breast
A498 renal = test system: A498 renal
HCT-15 colon = test system: HCT-15 colon
HL-60(TB) leukemia = test system: HL-60(TB) leukemia
BT-549 breast = test system: BT-549 breast
MALME-3M melanoma = test system: MALME-3M melanoma
CAKI-1 renal = test system: CAKI-1 renal
RXF 393 renal = test system: RXF 393 renal
MDA-MB-435 = test system: MDA-MB-435
SF-268 CNS = test system: SF-268 CNS

Compound CCC(CC)COC(=O)[C@H](C)N[P@](=O)(OC[C@H]1O[C@@](C#N)(c2ccc3c(N)ncnn23)[C@H](O)[C@@H]1O)Oc1ccccc1 has a GI50 (RPMI-8226 leukemia) of 1020 nM, a TGI (RPMI-8226 leukemia) of 10.6 µM and a GI50 (SR leukemia) of 1000 nM. It also gave a TGI (SR leukemia) of 32.4 µM, a GI50 (OVCAR-4 ovarian) of 3.02 µM and a TGI (OVCAR-4 ovarian) of 66 µM. For the same compound, the GI50 (SK-MEL-2 melanoma) was 970 nM, the TGI (SK-MEL-2 melanoma) was 4.51 µM and the GI50 (OVCAR-5 ovarian) was 40.2 µM. The TGI (OVCAR-5 ovarian) was > 100 µM, the GI50 (NCI-H23 lung) was 2590 nM and the TGI (NCI-H23 lung) was 12.1 µM. For the same compound, the GI50 (K-562 leukemia) was 597 nM, the TGI (K-562 leukemia) was > 100 µM and the GI50 (TK-10 renal) was 9.85 µM. For the same compound, the TGI (TK-10 renal) was > 100 µM, the GI50 (NCI-H226 lung) was 7.61 µM and the TGI (NCI-H226 lung) was 49.1 µM. The GI50 (HCC-2998 colon) was 5.39 µM, the TGI (HCC-2998 colon) was > 100 µM and the GI50 (M14 melanoma) was 1950 nM. For the same compound, the TGI (M14 melanoma) was 12.2 µM, the GI50 (MOLT-4 leukemia) was 2790 nM and the TGI (MOLT-4 leukemia) was 31.2 µM. The GI50 (SW-620 colon) was 1920 nM, the TGI (SW-620 colon) was > 100 µM and the GI50 (COLO 205 colon) was 2460 nM. For the same compound, the TGI (COLO 205 colon) was 18.4 µM, the GI50 (NCI/ADR-RES ovarian) was > 100 µM and the TGI (NCI/ADR-RES ovarian) was > 100 µM. The GI50 (SNB-19 CNS) was 15.7 µM, the TGI (SNB-19 CNS) was > 100 µM and the GI50 (IGROV1 ovarian) was 2720 nM. The TGI (IGROV1 ovarian) was 95.2 µM, the GI50 (U251 CNS) was 15.9 µM and the TGI (U251 CNS) was > 100 µM. The GI50 (NCI-H460 lung) was 4.83 µM, the TGI (NCI-H460 lung) was > 100 µM and the GI50 (SK-MEL-5 melanoma) was 5.24 µM. For the same compound, the TGI (SK-MEL-5 melanoma) was 17.5 µM, the GI50 (786-0 renal) was 6.08 µM and the TGI (786-0 renal) was > 100 µM. The GI50 (HCT-116 colon) was 2240 nM, the TGI (HCT-116 colon) was 30.2 µM and the GI50 (HT29 colon) was 6.08 µM. For the same compound, the TGI (HT29 colon) was > 100 µM, the GI50 (CCRF-CEM leukemia) was 3.51 µM and the TGI (CCRF-CEM leukemia) was 51.6 µM. For the same compound, the GI50 (DU-145 prostate) was 8.44 µM, the TGI (DU-145 prostate) was > 100 µM and the GI50 (ACHN renal) was 18.3 µM. The TGI (ACHN renal) was > 100 µM, the GI50 (UACC-257 melanoma) was 2730 nM and the TGI (UACC-257 melanoma) was 15.7 µM. The GI50 (MCF7 breast) was 3.45 µM, the TGI (MCF7 breast) was 27.3 µM and the GI50 (PC-3 prostate) was 3.58 µM. For the same compound, the TGI (PC-3 prostate) was 14.2 µM, the GI50 (KM12 colon) was 15.3 µM and the TGI (KM12 colon) was > 100 µM. For the same compound, the GI50 (UO-31 renal) was 41.3 µM, the TGI (UO-31 renal) was > 100 µM and the GI50 (SN12C renal) was 7.73 µM. For the same compound, the TGI (SN12C renal) was > 100 µM, the GI50 (NCI-H522 lung) was 1290 nM and the TGI (NCI-H522 lung) was 27.3 µM. The GI50 (EKVX NSCLC) was 19.1 µM, the TGI (EKVX NSCLC) was > 100 µM and the GI50 (SK-OV-3 ovarian) was 2650 nM. For the same compound, the TGI (SK-OV-3 ovarian) was > 100 µM, the GI50 (OVCAR-3 ovarian) was 2350 nM and the TGI (OVCAR-3 ovarian) was 18.5 µM. For the same compound, the GI50 (SF-295 CNS) was 31 µM, the TGI (SF-295 CNS) was > 100 µM and the GI50 (LOX IMVI melanoma) was 3.58 µM. The TGI (LOX IMVI melanoma) was 22.1 µM, the GI50 (MDA-MB-231 breast) was 5.46 µM and the TGI (MDA-MB-231 breast) was 81.3 µM. For the same compound, the GI50 (HS 578T breast) was 13.2 µM, the TGI (HS 578T breast) was > 100 µM and the GI50 (HOP-62 NSCLC) was 6.34 µM. The TGI (HOP-62 NSCLC) was > 100 µM, the GI50 (SK-MEL-28 melanoma) was 2830 nM and the TGI (SK-MEL-28 melanoma) was 11.8 µM. The GI50 (OVCAR-8 ovarian) was 5.91 µM, the TGI (OVCAR-8 ovarian) was > 100 µM and the GI50 (A549 NSCLC) was 47.7 µM. For the same compound, the TGI (A549 NSCLC) was > 100 µM, the GI50 (SNB-75 CNS) was 2750 nM and the TGI (SNB-75 CNS) was 91.6 µM. For the same compound, the GI50 (UACC-62 melanoma) was 2560 nM, the TGI (UACC-62 melanoma) was 11 µM and the GI50 (SF-539 CNS) was 10.8 µM. The TGI (SF-539 CNS) was 37.3 µM, the GI50 (T-47D breast) was 1820 nM and the TGI (T-47D breast) was > 100 µM. It also gave a GI50 (A498 renal) of 359 nM, a TGI (A498 renal) of 8.57 µM and a GI50 (HCT-15 colon) of 29.1 µM. The TGI (HCT-15 colon) was > 100 µM, the GI50 (HL-60(TB) leukemia) was 701 nM and the TGI (HL-60(TB) leukemia) was 8.62 µM. For the same compound, the GI50 (BT-549 breast) was 9.62 µM, the TGI (BT-549 breast) was 50.7 µM and the GI50 (MALME-3M melanoma) was 2080 nM. For the same compound, the TGI (MALME-3M melanoma) was 6.91 µM, the GI50 (CAKI-1 renal) was 4.19 µM and the TGI (CAKI-1 renal) was > 100 µM. For the same compound, the GI50 (RXF 393 renal) was 2800 nM, the TGI (RXF 393 renal) was 23.3 µM and the GI50 (MDA-MB-435) was 4.53 µM. The TGI (MDA-MB-435) was 25.1 µM, the GI50 (SF-268 CNS) was 4.29 µM and the TGI (SF-268 CNS) was > 100 µM.
